Experimental data: patent publication US5439930A, “Biologically active n-acylprolydipeptides having antiamnestic, antihypoxic and anorexigenic effects” (Russian-American Institute for New Drug Development, priority 1992, dated 1995)
Where a SMILES comes first, the peptide text is derived from it. The star is where a group is joined. PhAc = O=C(Cc1ccccc1)*

Legend:
[1] = system: memory decline evoked by maximal electroshock (MES) in randomly bred male albino rats; assay: Passive avoidance step-through, amnesia by maximal electroshock (MES); type: in vivo
Experimental: (§1) Compounds according to the present invention, including the compounds described in Examples 1-11, were checked for their ability to prevent memory decline evoked by maximal electroshock (MES) or scopolamine in the passive avoidance step-through paradigm (equipment of Laffaette Co., USA). The experiments described herein (Examples 12, 13, 15, and 19) were carried out using randomly bred male albino rats of a weight of approximately 180-220 g. […] Amnesia was produced by transcorneal maximal electroshock immediately after learning or scopolamine (1 mg/kg, subcutaneously) administration 30 min. before learning. The retention was tested 24 hours later by the measurement of latency of the entering of the dark compartment.
(§2) The degree of antiamnestic activity was estimated according to Buttler's modified formula: [formula]
(§3) The higher the magnitude of this indicator the more is the antiamnestic activity.

[2] = system: rat's offspring damaged by prenatal alcoholization; assay: Active avoidance learning of offspring after prenatal alcoholization; type: in vivo, rats
Experimental: (§4) The cognitive impairment in the rat's offspring was provoked by prenatal alcoholization or prenatal hypoxia. Prenatal alcoholization was achieved by peroral administration of 5 g/kg/day (25% solution) ethanol to pregnant female rats during whole pregnancy. To achieve prenatal hypoxia the rats on the 15th day of pregnancy were placed into hypobaric barometric chamber (the "elevating" up 8500 m altitude; exposition for 2 hours).
(§5) The treatment of the offspring was performed from 8th day to 20th day. Compound I was administered in the dose of 0.1 mg/kg/day subcutaneously. The testing was performed on two-month old rats.
(§6) It has been established that both kinds of damage (alcoholization, hypoxia) caused learning disorders in active avoidance test. Early postnatal administration of Compound I restored learning activity (Table 9).

lobectomized rats = assay: Passive avoidance after frontal lobectomy; type: in vivo; conditions: 9th day, 0.1 mg/kg for 9 days
Experimental: The impairment of learning and memory was achieved also by frontal lobectomy, which was performed after passive avoidance or active avoidance learning. Compound I (0.1 mg/kg) was administered beginning from the first post-operational day and lasting for 9 days. The testing was performed at 4th and 9th days. […] The frontal lobectomy has as a consequence the decrease of the latency of the entering of the dark compartment; Compound I restored the passive avoidance reaction (Table 8).

24-month Wistar rats = assay: Passive avoidance retention in aged rats; type: in vivo
Experimental: The influence of Compound I on age-related mental decline was studied in experiments on 24-month Wistar rats. The substance was administered chronically in the dose of 0.1 mg/kg/day during 24 days, intraperitoneally before the testing and 14 days during testing.
Chronic administration of Compound I facilitated the retention tested 24 hours and especially 14 days after learning in passive avoidance test (Table 11). It is evident from these experiments that Compound I is able to improve amnestic function in the old rats.

[3] = system: damaged stable active avoidance reaction, rats; assay: Conditional active avoidance reflex after damage (simultaneous sound and footshock); type: in vivo
From the text: The influence of Compound I on the active avoidance learning was studied in shuttle-box test (Ugo Basile, Italy). The conditioned reflex of active avoidance had been developed for 5 days with 50 daily trials for each rat. The learning task consisted in the rats' avoiding of the electric shock applied through the cage floor directly after sound. Rats could avoid the shock by moving into another compartment of the cage, but only while the sound was present (3 sec.).
In other experiments, stable active avoidance reaction was damaged by simultaneously switching of sound and electrical footshock for 5 trials. Compound I prevented the impairment of avoidance (Table 6).

outbred albino male mice = assay: Acute habituation of locomotor activity (Optovarimex); type: in vivo
Experimental: The effect of Compound I on acute habituation of locomotor activity was estimated according to diminution of locomotions during 30 minutes. Experiments were performed on outbred albino male mice (18-22 g) placed in groups of 10 animals in registration cage (Optovarimex, Colomb., USA).

[4] = system: phenazepam withdrawn male albino rats; assay: Threshold of aggressive behavior during phenazepam withdrawal; type: in vivo; conditions: 0.5 mg/kg i.p.; 24 hours after the last administration of phenazepam
Experimental: The influence of Compound I on withdrawal syndrome caused by the interruption of chronic administration of benzodiazepine tranquilizer phenazepam (T. A. Voronina et al., In Fenazepam; A. V. Bogatsky, Ed.; Naukova dumka Publishers: Kiev, 1982; pp. 67-169) was studied in experiments on male albino rats weighing 190-200 g at the beginning and 300-350 g at the end of the experiment.
Phenazepam (2 mg/kg intraperitoneally) or saline (control group of rats) were given once daily for 57 days. The withdrawal syndrome occurred 24-72 hours after the last injection. The withdrawal syndrome in rats consisted in "anxiogenic-like" state aggressiveness and accelerated development of kindled seizures caused by pentylentetrazol. Compound I was administered to the withdrawn rats in doses of 0.5 mg/kg intraperitoneally 15 minutes prior to testing.
The threshold of the aggressive behavior was determined in the experiment on the rats (R. Tedeshi et al., J. Pharmacol. Exp. Ther., 125, 28-34 (1959)). The paired rats were placed on the electrified floor; the strength of the current, which provokes the fighting, was registered.

[5] = system: memory decline evoked by scopolamine in randomly bred male albino rats; assay: Passive avoidance step-through, amnesia by scopolamine; type: in vivo; conditions: 0.1 mg/kg 15 min before learning
Experimental: as §1, §2, §3

[6] = system: undertraining of the passive avoidance reflex, rats; assay: Passive avoidance with undertraining, different regimes of administration; type: in vivo; conditions: 0.5 mg/kg i.p.
[7] = system: rat's offspring damaged by prenatal hypoxia; assay: Active avoidance learning of offspring after prenatal hypoxia; type: in vivo, rats
Experimental: as §4, §5, §6

[8] = day 1 of learning, 0.1 mg/kg/day s.c. from 8th to 20th day

## CCOC(=O)CNC(=O)[C@@H]1CCCN1C(=O)Cc1ccccc1 [Compound I, N-phenacetyl-L-prolylglycine ethyl ester] (PhAc-Pro-Gly-OEt)
[1]; 0.1 mg/kg i.p. 15 min before training, MES after learning, retention 24 h later
  Latency (sec.) Amnesia + subst.: 25 s
[1]; 0.1 mg/kg i.p. 15 min before training, MES amnesia
  AA % (antiamnestic activity, Butler's modified formula): 36%
[1]; 0.1 mg/kg per os, MES amnesia
  Antiamnestic activity (Aa): 19%
[1]; 0.3 mg/kg per os, MES amnesia
  Antiamnestic activity (Aa): 19%
[1]; 0.4 mg/kg per os, MES amnesia
  Antiamnestic activity (Aa): 23%
[1]; 0.5 mg/kg per os, MES amnesia
  Antiamnestic activity (Aa): 43%
[1]; 0.7 mg/kg per os, MES amnesia
  Antiamnestic activity (Aa): 52%
[1]; 0.9 mg/kg per os, MES amnesia
  Antiamnestic activity (Aa): 36%
[1]; 1.0 mg/kg per os, MES amnesia
  Antiamnestic activity (Aa): 10%
[1]; 1.2 mg/kg per os, MES amnesia
  Antiamnestic activity (Aa): 16%
[1]; 1.5 mg/kg per os, MES amnesia
  Antiamnestic activity (Aa): 10%
[2]; [8]
  Rats with reflex of active avoidance: 0%
[2]; day 1 of retention
  Rats with reflex of active avoidance: 78%
[2]; day 2 of learning
  Rats with reflex of active avoidance: 0%
[2]; day 2 of retention
  Rats with reflex of active avoidance: 89%
[2]; day 3 of learning
  Rats with reflex of active avoidance: 55%
[2]; day 4 of learning
  Rats with reflex of active avoidance: 82%
Lobectomized rats
  Passive avoidance test (latency, sec): 141.2 s
24-month Wistar rats; 24 hours after learning
  Passive avoidance test (latency, sec): 128 s
24-month Wistar rats; 14 days after learning
  Passive avoidance test (latency, sec): 132 s
[3]; after damage, 1-5th trials
  Percentage of avoidances during 5 trials: 86.7
[3]; after damage, 6-10th trials
  Percentage of avoidances during 5 trials: 88.9 ± 4.8
[3]; after damage, 11-15th trials
  Percentage of avoidances during 5 trials: 97.8
[3]; before damage
  Percentage of avoidances during 5 trials: 88.9 ± 4.8
Outbred albino male mice; 0.05 mg/kg, 15 min before registration
  Habituation index (motor activity last 5 min / first 5 min of recording): 30%
Outbred albino male mice; 0.1 mg/kg
  Habituation index: 10%
Outbred albino male mice; 0.5 mg/kg
  Habituation index: 15%
Outbred albino male mice; 2.5 mg/kg
  Habituation index: 25%
Outbred albino male mice; 5.0 mg/kg
  Habituation index: 27%
Outbred albino male mice; dose range 0.05-5.0 mg/kg
  Initial locomotor activity: without changing of initial locomotor activity
[4]
  Aggression Threshold (mA): 0.92 ± 0.1 mA
[5]; scopolamine 1 mg/kg s.c.
  Aa (antiamnestic activity): 55.5
[5]; scopolamine 1 mg/kg s.c. 30 min before trial
  Latency (sec.) Scopolamine + substance: 64.1 s
[6]
  Mnestic activity (Ma), administration 15 min. before retrieval: 32%
  Mnestic activity (Ma), administration 15 min. before trial: 23%
  Mnestic activity (Ma), administration immediately after trial: 14.0%
[7]; [8]
  Rats with reflex of active avoidance: 0%
[7]; day 2 of learning
  Rats with reflex of active avoidance: 0%
[7]; day 3 of learning
  Rats with reflex of active avoidance: 25%
[7]; day 4 of learning
  Rats with reflex of active avoidance: 68%
[7]; day 5 of learning
  Rats with reflex of active avoidance: 88%
